The values below come from patent publication US12686665B2, “Bicyclic fused ring derivative or salt thereof and pharmaceutical composition comprising same” (YUHAN CORPORATION, priority 2021, dated 2026).

Counter-ions that a name gives are not always drawn.

This assay concerns the target T1, recombinant human Lysyl Oxidase-Like 2 (LOXL2) (Homo sapiens, UniProt Q9Y4K0).
T1 construct: purchased R&D systems
T1 sequence (Q9Y4K0 26-774): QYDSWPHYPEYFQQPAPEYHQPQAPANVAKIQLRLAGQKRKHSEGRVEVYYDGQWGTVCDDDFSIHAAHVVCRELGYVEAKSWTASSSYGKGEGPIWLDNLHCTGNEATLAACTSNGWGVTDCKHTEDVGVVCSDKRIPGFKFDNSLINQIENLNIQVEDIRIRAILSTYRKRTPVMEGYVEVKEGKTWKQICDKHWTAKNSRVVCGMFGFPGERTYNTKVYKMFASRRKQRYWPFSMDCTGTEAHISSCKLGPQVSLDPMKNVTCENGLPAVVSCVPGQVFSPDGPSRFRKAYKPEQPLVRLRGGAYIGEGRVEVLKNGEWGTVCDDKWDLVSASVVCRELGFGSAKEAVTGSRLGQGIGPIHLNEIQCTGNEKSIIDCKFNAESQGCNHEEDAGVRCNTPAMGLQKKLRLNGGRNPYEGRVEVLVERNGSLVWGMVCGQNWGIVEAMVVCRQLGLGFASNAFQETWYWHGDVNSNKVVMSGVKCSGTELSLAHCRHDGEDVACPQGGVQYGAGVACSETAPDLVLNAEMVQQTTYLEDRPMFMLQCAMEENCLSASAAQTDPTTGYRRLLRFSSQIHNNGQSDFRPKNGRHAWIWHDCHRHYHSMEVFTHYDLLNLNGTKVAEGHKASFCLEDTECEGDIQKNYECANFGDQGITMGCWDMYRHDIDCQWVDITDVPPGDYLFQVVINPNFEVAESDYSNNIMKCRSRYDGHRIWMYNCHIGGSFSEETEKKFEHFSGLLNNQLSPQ
The assay can be described thus: Amplex Red HRP-coupled amine oxidase assay, recombinant human LOXL2. In kind it is biochemical. The settings on record: 60 min incubation with enzyme at 37° C., putrescine substrate, read-out: Inhibitory activity (IC50, nM) human LOXL2. On the procedure:
The activities of the compounds according to the present invention against recombinant human Lysyl Oxidase-Like 2 (recombinant human LOXL2, R&D systems) were evaluated by measuring the levels of hydrogen peroxide in the HRP (horseradish peroxidase) coupled reactions, with the Amplex Red Hydrogen Peroxide Assay Kit (Molecular Probes, Invitrogen, USA). The tests were carried out at 37° C., and putrescine was used as a substrate. In the HRP coupling reaction, the oxidation of 10-acetyl-3,7-dihydroxyphenoxazine (Amplex Red reagent) by hydrogen peroxide generates a fluorescent product, i.e., resorufin. Briefly, the test compounds were dissolved in dimethyl sulfoxide (DMSO) at a concentration of 20 mM. Dose-response measurements were carried out by serial dilutions in DMSO to generate a six-point curve. The upper concentration was adjusted according to the potency of the compound, and then diluted with the reaction buffer to obtain a final DMSO concentration of 1%. Purified human LOXL2 in 50 mM sodium phosphate buffer (pH7.4) was added to each well of a 96 well black plate. The test compounds dissolved in DMSO were incubated with the human LOXL2 enzyme at 37° C. for 60 minutes. After the incubation for 60 minutes, a reaction mixture containing 400 μM Amplex Red reagent, 30 mM putrescine, and 2 U/mL HRP in 50 mM sodium phosphate buffer (pH 7.4) was added to each well. Fluorescence was measured with a microplate reader (Flexstation3, Molecular Devices), under the conditions of excitation at 530 nm and emission at 590 nm, 1 hour after the addition of the mixture. Inhibition by each compound was measured as % reduction in signal, compared to the control without an inhibitor (diluted DMSO only). The data were fixed to a four-variable logistic model, and […] values were calculated using the GraphPad Prism program.
Turning to `NC/C=C(\F)Cn1nnc2c(-c3cccc(S(=O)(=O)N4CCCC4)c3)cccc21` [Example 104, (Z)-3-fluoro-4-(4-(3-(pyrrolidin-1-ylsulfonyl)phenyl)-1H-benzo[d][1,2,3]triazol-1-yl)but-2-en-1-amine hydrochloride], the IC50 – broadly, the concentration that inhibits the measured activity by half – was 51 nM.

`CC(=O)c1ccc(F)c(-c2cc(C(F)(F)F)cc3c2nnn3C/C(F)=C/CN)c1` [Example 197, (Z)-1-(3-(1-(4-amino-2-fluorobut-2-en-1-yl)-6-(trifluoromethyl)-1H-benzo[d][1,2,3]triazol-4-yl)-4-fluorophenyl)ethan-1-one hydrochloride]: the IC50 was determined as 308 nM.

`COC(=O)c1cc(-c2cccc(S(=O)(=O)NCc3ccc(OC)cc3)c2)c2nnn(C/C(F)=C/CN)c2c1` [Example 125, methyl (Z)-1-(4-amino-2-fluorobut-2-en-1-yl)-4-(3-(N-(4-methoxybenzyl)sulfamoyl)phenyl)-1H-benzo[d][1,2,3]triazol-6-carboxylate hydrochloride]: the IC50 came to 70.6 nM.

On to `CNS(=O)(=O)c1ccc(OC)c(-c2cc(C(=O)NOC)cc3c2nnn3C/C(F)=C/CN)c1` [Example 134, (Z)-1-(4-amino-2-fluorobut-2-en-1-yl)-N-methoxy-4-(2-methoxy-5-(N-methylsulfamoyl)phenyl)-1H-benzo[d][1,2,3]triazol-6-carboxamide hydrochloride], for which the IC50 worked out at 8 nM.

Regarding `COC(=O)c1cc(-c2cccc(S(=O)(=O)N3CCCC3)c2)c2nnn(C/C(F)=C/CN)c2c1` [Example 116, methyl (Z)-1-(4-amino-2-fluorobut-2-en-1-yl)-4-(3-(pyrrolidin-1-ylsulfonyl)phenyl)-1H-benzo[d][1,2,3]triazol-6-carboxylate hydrochloride], the IC50 is 52.4 nM.

Regarding `CCn1nccc1-c1cc(C(F)(F)F)cc2c1nnn2C/C(F)=C/CN` [Example 203, (Z)-4-(4-(1-ethyl-1H-pyrazol-5-yl)-6-(trifluoromethyl)-1H-benzo[d][1,2,3]triazol-1-yl)-3-fluorobut-2-en-1-amine hydrochloride], the IC50 was 351 nM.

In the case of `COc1ccc(-c2cccc3c2nnn3C/C(F)=C/CN)cc1S(=O)(=O)NC(C)C` [Example 109, (Z)-5-(1-(4-amino-2-fluorobut-2-en-1-yl)-1H-benzo[d][1,2,3]triazol-4-yl)-N-isopropyl-2-methoxybenzenesulfonamide hydrochloride], the IC50 worked out at 72 nM.

For the compound `N#Cc1cc(-c2cncc(Cl)c2)c2nnn(C/C(F)=C/CN)c2c1` [Example 209, (Z)-1-(4-amino-2-fluorobut-2-en-1-yl)-4-(5-chloropyridin-3-yl)-1H-benzo[d][1,2,3]triazol-6-carbonitrile hydrochloride], the IC50 is 86.8 nM.

As to `NC/C=C(\F)Cn1nnc2c(-c3cccc(CO)c3Cl)cc(C(F)(F)F)cc21` [Example 199, (Z)-(3-(1-(4-amino-2-fluoro-2-en-1-yl)-6-(trifluoromethyl)-1H-benzo[d][1,2,3]triazol-4-yl)-2-chlorophenyl)methanol hydrochloride], the IC50 was 305 nM.

`NC/C=C(\F)Cn1cnc2c(-c3cnn(CCO)c3)cc(C(F)(F)F)cc21` [Example 180, (Z)-2-(4-(1-(4-amino-2-fluorobut-2-en-1-yl)-6-(trifluoromethyl)-1H-benzo[d]imidazol-4-yl)-1H-pyrazol-1-yl)ethan-1-ol hydrochloride]: the IC50 was determined as 323 nM.

Regarding `N#Cc1cc(-c2cccnc2)c2ncn(C/C(F)=C/CN)c2c1` [Example 187, (Z)-1-(4-amino-2-fluorobut-2-en-1-yl)-4-(pyridin-3-yl)-1H-benzo[d]imidazol-6-carbonitrile hydrochloride], the IC50 came to 464 nM.

`COC(=O)c1cc(-c2ccc(OC)c(S(=O)(=O)NC(C)C)c2)c2ncn(C/C(F)=C/CN)c2c1` [Example 28, methyl (Z)-1-(4-amino-2-fluorobut-2-en-1-yl)-4-(3-(N-isopropylsulfamoyl)-4-methoxyphenyl)-1H-benzo[d]imidazol-6-carboxylate hydrochloride]: the IC50 came to 54.2 nM.

Consider `N#Cc1cc(-c2cncc(Cl)c2)c2ncn(C/C(F)=C/CN)c2c1` [Example 189, (Z)-1-(4-amino-2-fluorobut-2-en-1-yl)-4-(5-chloropyridin-3-yl)-1H-benzo[d]imidazol-6-carbonitrile hydrochloride], for which the IC50 was determined as 92.8 nM.

`N#Cc1cc(-c2cncc(F)c2)c2nnn(C/C(F)=C/CN)c2c1` [Example 208, (Z)-1-(4-amino-2-fluorobut-2-en-1-yl)-4-(5-fluoropyridin-3-yl)-1H-benzo[d][1,2,3]triazol-6-carbonitrile hydrochloride]: the IC50 turned out to be 270 nM.

Regarding `CONC(=O)c1cc(-c2cccc(S(=O)(=O)N3CCCC3)c2)c2nnn(C/C(F)=C/CN)c2c1` [Example 133, (Z)-1-(4-amino-2-fluorobut-2-en-1-yl)-N-methoxy-4-(3-(pyrrolidin-1-ylsulfonyl)phenyl)-1H-benzo[d][1,2,3]triazol-6-carboxamide hydrochloride], the IC50 came out at 24.4 nM.

In the case of `Cn1nc(C(F)(F)F)cc1-c1cc(C#N)cc2c1ncn2C/C(F)=C/CN` [Example 193, (Z)-1-(4-amino-2-fluorobut-2-en-1-yl)-4-(1-methyl-3-(trifluoromethyl)-1H-pyrazol-5-yl)-1H-benzo[d]imidazol-6-carbonitrile hydrochloride], the IC50 is 204 nM.

Turning to `Cc1cc(-c2cc(C(F)(F)F)cc3c2nnn3C/C(F)=C/CN)n(C)n1` [Example 204, (Z)-4-[4-(1,3-dimethyl-1H-pyrazol-5-yl)-6-(trifluoromethyl)-1H-benzo[d][1,2,3]triazol-1-yl]-3-fluorobut-2-en-1-amine hydrochloride], the IC50 worked out at 497 nM.

For `CON(C)C(=O)c1cc(-c2cccc(S(=O)(=O)N3CCCC3)c2)c2nnn(C/C(F)=C/CN)c2c1` [Example 137, (Z)-1-(4-amino-2-fluorobut-2-en-1-yl)-N-methoxy-N-methyl-4-(3-(pyrrolidin-1-ylsulfonyl)phenyl)-1H-benzo[d][1,2,3]triazol-6-carboxamide hydrochloride], the IC50 was found to be 37 nM.

Take `CCS(=O)(=O)c1cccc(-c2cc(C(=O)OC)cc3c2nnn3C/C(F)=C/CN)c1` [Example 127, methyl (Z)-1-(4-amino-2-fluorobut-2-en-1-yl)-4-(3-(ethylsulfonyl)phenyl)-1H-benzo[d][1,2,3]triazol-6-carboxylate hydrochloride]: the IC50 came out at 19 nM.

Consider `COC(=O)c1cc(-c2ccc(OC)c(S(=O)(=O)NC(C)C)c2)c2nnn(C/C(F)=C/CN)c2c1` [Example 121, methyl (Z)-1-(4-amino-2-fluorobut-2-en-1-yl)-4-(3-(N-isopropylsulfamoyl)-4-methoxyphenyl)-1H-benzo[d][1,2,3]triazol-6-carboxylate hydrochloride], for which the IC50 was found to be 42.9 nM.

Turning to `NC/C=C(\F)Cn1nnc2c(-c3cncnc3)cc(C(F)(F)F)cc21` [Example 202, (Z)-3-fluoro-4-(4-(pyrimidin-5-yl)-6-(trifluoromethyl)-1H-benzo[d][1,2,3]triazol-1-yl)but-2-en-1-amine hydrochloride], the IC50 was 190 nM.

For `CCN(CC)S(=O)(=O)c1ccc(OC)c(-c2cc(C(=O)NOC)cc3c2nnn3C/C(F)=C/CN)c1` [Example 135, (Z)-1-(4-amino-2-fluorobut-2-en-1-yl)-4-(5-(N,N-diethylsulfamoyl)-2-methoxyphenyl)-N-m ethoxy-1H-benzo[d][1,2,3]triazol-6-carboxamide hydrochloride], the IC50 stood at 35.6 nM.

Regarding `NC/C=C(\F)Cn1nnc2c(-c3cncc(F)c3)cc(C(F)(F)F)cc21` [Example 200, (Z)-3-fluoro-4-(4-(5-fluoropyridin-3-yl)-6-(trifluoromethyl)-1H-benzo[d][1,2,3]triazol-1-yl)but-2-en-1-amine hydrochloride], the IC50 was determined as 330 nM.
